{
  "source": "paper PMC6416464",
  "about": "(Drug Metabolism Letters, 2018)",
  "key": {"rCYP2D6": {"target": "rCYP2D6 (Homo sapiens, UniProt P10635)", "sequence (P10635 whole entry)": "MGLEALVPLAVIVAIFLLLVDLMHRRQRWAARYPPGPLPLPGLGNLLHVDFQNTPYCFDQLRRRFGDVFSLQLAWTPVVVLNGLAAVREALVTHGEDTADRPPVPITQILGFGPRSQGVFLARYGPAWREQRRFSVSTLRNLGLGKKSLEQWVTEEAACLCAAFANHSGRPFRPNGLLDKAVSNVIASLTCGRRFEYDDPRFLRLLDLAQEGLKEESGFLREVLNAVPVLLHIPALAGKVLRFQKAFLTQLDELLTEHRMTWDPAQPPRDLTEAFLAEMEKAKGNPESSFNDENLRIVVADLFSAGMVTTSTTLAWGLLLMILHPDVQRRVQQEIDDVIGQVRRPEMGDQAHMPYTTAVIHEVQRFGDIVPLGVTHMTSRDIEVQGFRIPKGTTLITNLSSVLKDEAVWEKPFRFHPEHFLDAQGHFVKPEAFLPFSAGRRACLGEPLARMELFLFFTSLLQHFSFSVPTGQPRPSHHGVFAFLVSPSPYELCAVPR", "assay": "Metabolic stability / reaction phenotyping with recombinant human CYP2D6"}, "[1]": {"assay": "Metabolic stability, incubation with human liver cytosol", "format": "in vitro ADME", "conditions": "1 µM test compound, 1 mg/mL protein"}, "CYP2C9": {"target": "CYP2C9 (Homo sapiens, UniProt P11712)", "sequence (P11712 whole entry)": "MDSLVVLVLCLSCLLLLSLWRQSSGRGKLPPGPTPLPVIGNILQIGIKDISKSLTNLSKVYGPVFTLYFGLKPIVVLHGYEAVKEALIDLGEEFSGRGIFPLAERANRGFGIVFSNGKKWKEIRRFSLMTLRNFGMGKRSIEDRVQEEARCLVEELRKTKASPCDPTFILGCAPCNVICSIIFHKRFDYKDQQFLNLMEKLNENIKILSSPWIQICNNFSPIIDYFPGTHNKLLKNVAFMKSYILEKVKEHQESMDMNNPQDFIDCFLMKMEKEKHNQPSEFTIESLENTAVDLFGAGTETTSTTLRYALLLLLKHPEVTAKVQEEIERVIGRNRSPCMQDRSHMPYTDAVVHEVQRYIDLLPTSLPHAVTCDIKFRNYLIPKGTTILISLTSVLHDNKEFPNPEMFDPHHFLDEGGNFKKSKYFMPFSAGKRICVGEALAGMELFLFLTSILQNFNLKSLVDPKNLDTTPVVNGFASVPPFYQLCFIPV", "assay": "CYP inhibition in human liver microsomes, CYP2C9"}, "CYP2C8": {"target": "T1, CYP2C8 (Homo sapiens, UniProt P10632)", "T1 sequence (P10632 1-490)": "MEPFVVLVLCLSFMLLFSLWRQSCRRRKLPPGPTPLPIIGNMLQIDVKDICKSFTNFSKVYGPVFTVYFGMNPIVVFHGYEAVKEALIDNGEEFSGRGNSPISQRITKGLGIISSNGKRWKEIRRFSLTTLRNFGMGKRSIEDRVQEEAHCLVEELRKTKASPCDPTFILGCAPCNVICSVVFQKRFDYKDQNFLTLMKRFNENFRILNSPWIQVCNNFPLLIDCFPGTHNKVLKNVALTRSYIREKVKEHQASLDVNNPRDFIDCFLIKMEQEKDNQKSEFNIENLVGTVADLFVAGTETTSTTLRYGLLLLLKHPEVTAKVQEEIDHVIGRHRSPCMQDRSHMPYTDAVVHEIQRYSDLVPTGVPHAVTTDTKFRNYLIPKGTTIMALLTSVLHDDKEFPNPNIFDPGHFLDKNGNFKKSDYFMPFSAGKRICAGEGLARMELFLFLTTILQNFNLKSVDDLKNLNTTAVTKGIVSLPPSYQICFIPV", "assay": "CYP inhibition in human liver microsomes, CYP2C8"}, "rCYP3A4": {"target": "rCYP3A4 (Homo sapiens, UniProt P08684)", "sequence (P08684 whole entry)": "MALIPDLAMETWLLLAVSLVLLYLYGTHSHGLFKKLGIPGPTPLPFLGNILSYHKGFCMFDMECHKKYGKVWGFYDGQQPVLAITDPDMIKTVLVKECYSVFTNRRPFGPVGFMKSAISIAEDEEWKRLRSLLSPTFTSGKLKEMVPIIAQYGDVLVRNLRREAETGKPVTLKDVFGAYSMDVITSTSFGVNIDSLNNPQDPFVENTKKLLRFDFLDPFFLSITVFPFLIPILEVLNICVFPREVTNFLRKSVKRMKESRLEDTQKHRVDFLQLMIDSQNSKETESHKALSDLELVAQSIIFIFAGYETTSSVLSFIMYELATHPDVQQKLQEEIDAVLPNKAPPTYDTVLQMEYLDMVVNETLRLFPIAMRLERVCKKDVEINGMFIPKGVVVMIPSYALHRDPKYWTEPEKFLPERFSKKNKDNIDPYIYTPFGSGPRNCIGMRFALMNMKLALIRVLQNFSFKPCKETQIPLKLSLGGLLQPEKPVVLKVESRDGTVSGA"}, "CYP2C19": {"target": "CYP2C19 (Homo sapiens, UniProt P33261)", "sequence (P33261 whole entry)": "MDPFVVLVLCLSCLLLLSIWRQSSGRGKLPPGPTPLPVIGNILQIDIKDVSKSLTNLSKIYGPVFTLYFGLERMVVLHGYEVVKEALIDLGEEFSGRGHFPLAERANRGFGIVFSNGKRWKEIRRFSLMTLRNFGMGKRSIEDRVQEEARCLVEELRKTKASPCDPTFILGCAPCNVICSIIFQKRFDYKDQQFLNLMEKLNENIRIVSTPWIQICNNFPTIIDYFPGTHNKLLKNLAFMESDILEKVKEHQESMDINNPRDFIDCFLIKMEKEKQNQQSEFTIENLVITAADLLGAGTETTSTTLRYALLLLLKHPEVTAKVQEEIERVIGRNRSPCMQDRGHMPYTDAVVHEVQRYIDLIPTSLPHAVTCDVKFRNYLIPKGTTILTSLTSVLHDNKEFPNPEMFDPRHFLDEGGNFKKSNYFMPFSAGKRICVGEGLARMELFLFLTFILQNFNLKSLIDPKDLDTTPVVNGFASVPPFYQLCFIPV", "assay": "CYP inhibition in human liver microsomes, CYP2C19"}, "CYP3A4 [2]": {"target": "T2, CYP3A4 (Homo sapiens, UniProt P08684)", "T2 sequence (P08684 2-503)": "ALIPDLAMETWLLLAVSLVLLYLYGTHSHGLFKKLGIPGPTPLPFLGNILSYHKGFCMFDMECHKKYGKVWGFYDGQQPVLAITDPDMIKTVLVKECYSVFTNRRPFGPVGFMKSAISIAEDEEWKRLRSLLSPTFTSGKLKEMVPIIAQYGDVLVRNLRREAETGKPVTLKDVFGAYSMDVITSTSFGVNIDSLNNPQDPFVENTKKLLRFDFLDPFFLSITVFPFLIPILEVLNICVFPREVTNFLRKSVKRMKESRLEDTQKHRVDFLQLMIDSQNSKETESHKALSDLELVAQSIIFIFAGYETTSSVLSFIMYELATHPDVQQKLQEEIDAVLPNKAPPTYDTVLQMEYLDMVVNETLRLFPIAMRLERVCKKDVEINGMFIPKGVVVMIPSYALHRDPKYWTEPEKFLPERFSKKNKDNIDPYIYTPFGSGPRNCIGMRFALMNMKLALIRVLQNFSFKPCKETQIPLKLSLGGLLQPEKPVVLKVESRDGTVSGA", "assay": "in vitro", "conditions": "microsomes, pH 7.4"}, "CYP3A4 [3]": {"target": "T2, CYP3A4", "assay": "in vitro", "conditions": "microsomes, pH 7.4, % Inhibition of Control Activity CYP3A4 (substrate, testosterone)"}, "CYP3A4 [4]": {"target": "T2, CYP3A4", "assay": "biochemical"}, "rCYP1A2": {"target": "T3, rCYP1A2 (Homo sapiens, UniProt P05177)", "T3 sequence (P05177 1-516)": "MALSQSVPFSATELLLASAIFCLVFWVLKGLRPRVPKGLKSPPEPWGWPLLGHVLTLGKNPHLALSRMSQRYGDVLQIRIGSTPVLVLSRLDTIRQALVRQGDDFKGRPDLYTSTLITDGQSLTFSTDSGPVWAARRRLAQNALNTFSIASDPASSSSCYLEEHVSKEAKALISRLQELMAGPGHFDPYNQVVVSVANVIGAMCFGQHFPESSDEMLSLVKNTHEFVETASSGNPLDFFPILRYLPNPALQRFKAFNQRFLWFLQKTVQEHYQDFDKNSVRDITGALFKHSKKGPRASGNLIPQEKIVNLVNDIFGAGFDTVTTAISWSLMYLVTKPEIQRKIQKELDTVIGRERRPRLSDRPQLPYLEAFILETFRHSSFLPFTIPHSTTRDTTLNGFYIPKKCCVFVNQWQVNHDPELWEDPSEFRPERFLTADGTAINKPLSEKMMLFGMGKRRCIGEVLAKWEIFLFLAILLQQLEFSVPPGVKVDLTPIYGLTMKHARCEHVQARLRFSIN", "assay": "Metabolic stability / reaction phenotyping with recombinant human CYP1A2"}, "[5]": {"conditions": "cited from earlier work"}, "CYP1A2": {"target": "T4, CYP1A2 (Homo sapiens, UniProt P05177)", "T4 sequence (P05177 1-516)": "T3 sequence (P05177 1-516)", "assay": "CYP inhibition in human liver microsomes, CYP1A2"}, "rCYP2C19": {"target": "rCYP2C19 (Homo sapiens, UniProt P33261)", "sequence (P33261 whole entry)": "as the sequence (P33261 whole entry) above", "assay": "Metabolic stability / reaction phenotyping with recombinant human CYP2C19"}, "rCYP2C9": {"target": "rCYP2C9 (Homo sapiens, UniProt P11712)", "sequence (P11712 whole entry)": "as the sequence (P11712 whole entry) above", "assay": "Metabolic stability / reaction phenotyping with recombinant human CYP2C9"}, "rCYP2C8": {"target": "T5, rCYP2C8 (Homo sapiens, UniProt P10632)", "T5 sequence (P10632 1-490)": "T1 sequence (P10632 1-490)", "assay": "Metabolic stability / reaction phenotyping with recombinant human CYP2C8", "conditions": "1 µM test compound; 100 pmol/mL; 30 min"}, "[6]": {"assay": "Metabolic stability, incubation with human liver microsomes", "conditions": "1 µM test compound, 0.5 mg/mL protein"}, "[7]": {"conditions": "1 µM test compound, 100 pmol/mL, 30 min"}, "[8]": {"conditions": "human, recombinant human CYP2D6, 1 µM, pH 7.4"}, "[9]": {"conditions": "human, human liver microsomes, pH 7.4, probe paclitaxel"}, "[10]": {"conditions": "human, recombinant enzyme, pH 7.4"}, "[11]": {"conditions": "human, recombinant human CYP1A2, 1 µM, pH 7.4"}, "[12]": {"conditions": "human, recombinant human CYP2C19, 1 µM, pH 7.4"}, "[13]": {"conditions": "human, recombinant human CYP2C9, 1 µM, pH 7.4"}},
  "data": [
    {"smiles": "CSc1nc2cc(Cl)c(Oc3cccc(Cl)c3Cl)cc2[nH]1", "note": "[Triclabendazole, reference compound]", "values": [
      {"measurement": "% Metabolized at 30 min Incubation with Human Liver Fractions/Enzymes rCYP2D6", "setting": "rCYP2D6; [7]", "result": 73.66, "unit": "%"},
      {"measurement": "% Contribution of CYP Enzymes (fmCYP) in Metabolism, CYP2D6", "setting": "rCYP2D6; [8]", "result": 3.88, "unit": "%"},
      {"measurement": "Predicted Microsomal Clint, CYP2D6", "setting": "rCYP2D6; [8]", "result": 4.448, "unit": "µL/min/mg Protein"},
      {"measurement": "rCYP Clint, CYP2D6", "setting": "rCYP2D6; [8]", "result": 0.445, "unit": "µL/min/pmol"},
      {"measurement": "% Metabolized at 30 min Incubation with Human Liver Fractions/Enzymes Cytosol", "setting": "[1]", "result": 12.40, "unit": "%"},
      {"measurement": "IC50", "setting": "CYP2C9", "result": 1170, "unit": "nM"},
      {"measurement": "IC50", "setting": "CYP2C8; IC50 CYP 2C8, HLM", "result": 3.31, "unit": "µM"},
      {"measurement": "inhibition at 2 µM", "setting": "CYP2C8; [9]", "result": 7.09, "unit": "%"},
      {"measurement": "inhibition at 10 µM", "setting": "CYP2C8; [9]", "result": 79.7, "unit": "%"},
      {"measurement": "% Metabolized at 30 min Incubation with Human Liver Fractions/Enzymes rCYP3A4", "setting": "rCYP3A4; [7]", "result": 11.70, "unit": "%"},
      {"measurement": "Predicted Microsomal Clint, CYP3A4", "setting": "rCYP3A4; human, pH 7.4", "result": 4.604, "unit": "µL/min/mg Protein"},
      {"measurement": "% Contribution of CYP Enzymes (fmCYP) in Metabolism, CYP3A4", "setting": "rCYP3A4; [10]", "result": 4.02, "unit": "%"},
      {"measurement": "rCYP Clint, CYP3A4", "setting": "rCYP3A4; [10]", "result": 0.041, "unit": "µL/min/pmol"},
      {"measurement": "IC50", "setting": "CYP2C19", "result": 250, "unit": "nM"},
      {"measurement": "inhibition at 2 µM", "setting": "CYP3A4 [2]", "result": "< 0", "unit": "%"},
      {"measurement": "inhibition at 10 µM", "setting": "CYP3A4 [2]", "result": "< 0", "unit": "%"},
      {"measurement": "inhibition at 2 µM", "setting": "CYP3A4 [3]", "result": 13.5, "unit": "%"},
      {"measurement": "inhibition at 10 µM", "setting": "CYP3A4 [3]", "result": 52.9, "unit": "%"},
      {"measurement": "IC50", "setting": "CYP3A4 [4]", "result": 15.1, "unit": "µM"},
      {"measurement": "% Metabolized at 30 min Incubation with Human Liver Fractions/Enzymes rCYP1A2", "setting": "rCYP1A2; [7]", "result": 97.14, "unit": "%"},
      {"measurement": "% Contribution of CYP Enzymes (fmCYP) in Metabolism, CYP1A2", "setting": "rCYP1A2; [11]", "result": 53.74, "unit": "%"},
      {"measurement": "Predicted Microsomal Clint, CYP1A2", "setting": "rCYP1A2; [11]", "result": 61.600, "unit": "µL/min/mg Protein"},
      {"measurement": "rCYP Clint, CYP1A2", "setting": "rCYP1A2; [11]", "result": 1.185, "unit": "µL/min/pmol"},
      {"measurement": "Cmax", "setting": "[5]; human patients at therapeutic doses of triclabendazole", "result": 1160, "unit": "nM"},
      {"measurement": "peak concentration", "setting": "[5]; humans, standard dose of triclabendazole of 10 mg/kg", "result": 1.16, "unit": "µM"},
      {"measurement": "IC50", "setting": "CYP1A2", "result": 1070, "unit": "nM"},
      {"measurement": "% Metabolized at 30 min Incubation with Human Liver Fractions/Enzymes rCYP2C19", "setting": "rCYP2C19; [7]", "result": 94.55, "unit": "%"},
      {"measurement": "% Contribution of CYP Enzymes (fmCYP) in Metabolism, CYP2C19", "setting": "rCYP2C19; [12]", "result": 16.07, "unit": "%"},
      {"measurement": "Predicted Microsomal Clint, CYP2C19", "setting": "rCYP2C19; [12]", "result": 18.415, "unit": "µL/min/mg Protein"},
      {"measurement": "rCYP Clint, CYP2C19", "setting": "rCYP2C19; [12]", "result": 0.969, "unit": "µL/min/pmol"},
      {"measurement": "% Metabolized at 30 min Incubation with Human Liver Fractions/Enzymes rCYP2C9", "setting": "rCYP2C9; [7]", "result": 55.00, "unit": "%"},
      {"measurement": "% Contribution of CYP Enzymes (fmCYP) in Metabolism, CYP2C9", "setting": "rCYP2C9; [13]", "result": 22.29, "unit": "%"},
      {"measurement": "Predicted Microsomal Clint, CYP2C9", "setting": "rCYP2C9; [13]", "result": 25.548, "unit": "µL/min/mg Protein"},
      {"measurement": "rCYP Clint, CYP2C9", "setting": "rCYP2C9; [13]", "result": 0.266, "unit": "µL/min/pmol"},
      {"measurement": "% Metabolized at 30 min Incubation with Human Liver Fractions/Enzymes rCYP2C8", "setting": "rCYP2C8", "result": 0.00, "unit": "%"},
      {"measurement": "% Metabolized at 30 min Incubation with Human Liver Fractions/Enzymes HLM", "setting": "[6]", "result": 51.68, "unit": "%"}
    ]}
  ]
}
